This is an account of results in ChEMBL document CHEMBL1201862, “PubChem BioAssay data set” (2004).

What is called IC50 is the concentration needed to halve the response being measured.

The target in assay [1] is Melanin-concentrating hormone receptor 1 (Homo sapiens, UniProt Q99705). Put plainly: Late-stage fluorescence-based counterscreen for antagonists of the G-protein coupled receptor 7 (GPR7): cell-based dose response assay to identify antagonists of the melanin-concentrating hormone receptor 1 (MCHR1) Set 5. The assay is classed as functional. Background: A counterscreen serves to expose hits that act by an unwanted route or on another target.
Melanin-concentrating hormone receptor 1, sequence (Q99705 whole entry): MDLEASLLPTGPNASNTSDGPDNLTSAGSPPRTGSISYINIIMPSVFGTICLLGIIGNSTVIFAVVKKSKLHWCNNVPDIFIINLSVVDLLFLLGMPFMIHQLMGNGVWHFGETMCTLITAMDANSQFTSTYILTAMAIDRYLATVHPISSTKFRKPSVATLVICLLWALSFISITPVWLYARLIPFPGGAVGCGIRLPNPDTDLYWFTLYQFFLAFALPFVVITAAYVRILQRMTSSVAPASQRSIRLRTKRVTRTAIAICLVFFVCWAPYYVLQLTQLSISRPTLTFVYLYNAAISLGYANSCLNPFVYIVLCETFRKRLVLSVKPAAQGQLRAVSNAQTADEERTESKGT

For assay [2], the target named is T1, Neuropeptides B/W receptor type 1 (Homo sapiens, UniProt P48145).
T1 sequence (P48145 whole entry): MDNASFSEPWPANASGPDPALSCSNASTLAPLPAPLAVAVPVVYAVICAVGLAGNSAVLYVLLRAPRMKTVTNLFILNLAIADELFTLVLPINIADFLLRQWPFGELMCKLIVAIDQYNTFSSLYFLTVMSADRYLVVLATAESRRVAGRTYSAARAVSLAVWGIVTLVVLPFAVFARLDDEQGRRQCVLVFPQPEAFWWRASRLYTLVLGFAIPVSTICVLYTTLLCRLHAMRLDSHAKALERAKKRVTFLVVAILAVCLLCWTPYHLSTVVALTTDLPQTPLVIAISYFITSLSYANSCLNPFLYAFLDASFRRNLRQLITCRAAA
Briefly: GPR7 antagonist potency, late-stage follow-up, cell-based, fluorescence, dose response, set 5 (AID 588566). The assay is classed as functional.

Active and inactive are the calls of the source. Cut-off read from the data, not from the text of the source: active = IC50 of 10 µM or less and inactive = more.

For `N#CC(c1ccccc1)c1cnn(Cc2cccc3ccccc23)c(=O)c1Cl` (configuration not stated), the IC50 was > 20 µM (inactive) in assay [1] and ~0.702 µM (active) in assay [2].
